The assay relates to HUVEC TNFalpha-induced E-selectin immunofluorescence imaging. Kind of assay: E-selectin expression inhibitors, dose response, confirmation, imaging, HUVEC, immunofluorescence, TNFalpha stimulation (AID 517).

The source of these data is PubChem BioAssay AID517 (Columbia University Molecular Screening Center, 2006).

Active and inactive are the calls of the source.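 The calls were made as follows: active = activity score of 15 or more, from fitted potency or summed per-dose inhibition z-scores, roughly IC50 of 5 µM; inactive = the rest.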

The term IC50 denotes the point on the concentration scale where inhibition reaches its midpoint. With `CC1CCN(CCC(=O)Nc2ccc(Br)cc2)CC1`, the IC50 is > 8 µM (inactive).

With `CN(Cc1ccccc1)Cc1nc2c([nH]1)c(=O)[nH]c(=O)n2C`, the IC50 is > 8 µM (inactive).

`CC(C)C(C(=O)Nc1ccc2c(c1)OCO2)N1C(=O)c2ccccc2C1=O` (stereo unspecified): the IC50 is > 8 µM (inactive).

As to `Cc1cc(C)n(C2=NS(=O)(=O)c3ccccc32)n1`, the IC50 was > 8 µM (inactive).

For the molecule `Cc1c(O)c(CN2CCCC2)cc2c1oc(=O)c1ccccc12`, the IC50 was > 8 µM (inactive).

`COc1ccc(CCNC(=O)C2=COCCO2)cc1`: the IC50 was > 8 µM (inactive).

As to `Cc1ccc(SC(C)c2nc(-c3ccccc3)no2)cc1` (stereo unspecified), the IC50 was > 8 µM (inactive).

Turning to `COCCn1c(=O)[nH]c2cc(C(=O)NCc3cccnc3)ccc2c1=O`, the IC50 was > 8 µM (inactive).

Consider `COc1ccc(Cl)cc1NC(=O)CSc1nncn1-c1cccnc1`, for which the IC50 was > 8 µM (inactive).

As for `Cn1cccc1Cc1nnc(SCC(=O)N2CCOCC2)n1-c1ccc(F)cc1`, the IC50 is > 8 µM (inactive).

For the molecule `O=C(Nc1ccc2[nH]c3c(c2c1)CCCC3)c1ccco1`, the IC50 was > 8 µM (inactive).

Consider `COc1cccc2c1C(=O)c1c(O)c3c(c(O)c1C2=O)C[C@@](O)(C(=O)CO)C[C@@H]3O[C@H]1C[C@H](N)[C@H](O)[C@H](C)O1`, for which the IC50 is 3.2 µM.

`Cc1ccc(C)c(-n2c(Cc3cc(=O)[nH]c(=O)[nH]3)nnc2SCC(=O)NCc2ccco2)c1`: the IC50 is > 8 µM (inactive).

Take `O=C(CSc1ccc(-c2ccccc2)nn1)N1CCOCC1`: the IC50 is > 8 µM (inactive).

For `C=CCn1c(-c2ccccc2)n[nH]c1=S`, the IC50 is > 8 µM (inactive).

As for `COC(=O)C1=C(C)NC(C)=C(C(=O)OC)C1C(=O)OC1CCCCC1=O` (stereo unspecified), the IC50 was > 8 µM (inactive).

In the case of `Fc1cc(F)c(F)c(SCCc2ccncc2)c1F`, the IC50 was > 8 µM (inactive).

As for `Cc1nnc(SCCn2c(N3CC(C)CC(C)C3)nc3c2c(=O)n(C)c(=O)n3C)s1` (stereo unspecified), the IC50 is > 8 µM (inactive).

Consider `N#CCCn1cnc2ccccc21`, for which the IC50 is > 8 µM (inactive).

As for `CCN(CC(=O)NC(=O)NCc1ccco1)Cc1nc2ccccc2c(=O)[nH]1`, the IC50 is > 8 µM (inactive).

For `COc1cccc2c1C(=O)c1c(O)c3c(c(O)c1C2=O)C[C@@](O)(C(C)=O)C[C@@H]3O[C@H]1C[C@H](N)[C@H](O)[C@H](C)O1`, the IC50 was 0.63 µM.

With `COc1ccccc1-c1c(C)nn2c(C)c(C(C)=O)cnc12`, the IC50 was > 8 µM (inactive).

Regarding `O=C(O)CC1CCCC(c2ccccc2)C1=O` (stereo unspecified), the IC50 is > 8 µM (inactive).

On to `O=C(COn1nnc2ccc(C(F)(F)F)cc21)Nc1nnc(-c2ccccc2)o1`, for which the IC50 was > 8 µM (inactive).

As for `N#Cc1c(NCc2ccccc2)ccnc1NCc1cccnc1`, the IC50 is > 8 µM (inactive).

As for `O=S1(=O)C=C(Sc2nc3ccccc3s2)c2ccccc21`, the IC50 is 1.85 µM.

In the case of `CC(C)Cn1c(=O)c(C(=O)Nc2ccccc2S(N)(=O)=O)c(O)c2ccccc21`, the IC50 was > 8 µM (inactive).

For `CCN(CC)CCCNC(=O)c1cn(C)c2ccc(S(=O)(=O)N(C)C)cc2c1=O`, the IC50 was > 8 µM (inactive).

Consider `COCCNC(=O)C1CCCN(c2ncccn2)C1` (stereo unspecified), for which the IC50 was > 8 µM (inactive).

As to `Cc1nc2ccccc2nc1OCC(=O)Nc1cc(C(F)(F)F)ccc1N1CCOCC1`, the IC50 was > 8 µM (inactive).

On to `O=c1cc(NCc2ccccc2)nc2n1CCCS2`, for which the IC50 was > 8 µM (inactive).

For the molecule `COC(=O)CCC(=O)Nc1cccc(Br)c1`, the IC50 is > 8 µM (inactive).

Regarding `COc1ccc(NC(=O)CSc2nnc(-c3ccccc3C)n2C)cc1`, the IC50 is > 8 µM (inactive).

`Cc1ccc2[nH]c(=O)c(CN(CCc3ccccc3)Cc3nnnn3CC3CCCO3)cc2c1` (stereo unspecified): the IC50 is > 8 µM (inactive).

For the molecule `C=CS(=O)(=O)c1ccc(Oc2ccc(S(=O)(=O)C=C)cc2)cc1`, the 50% inhibitory concentration (IC50) is 0.55 µM.

Take `O=C1CC(c2ccc(S(=O)(=O)N3CCN(c4ccccc4)CC3)cc2)CN1` (stereo unspecified): the IC50 was > 8 µM (inactive).

On to `CCn1c(=O)n(CC(=O)N(C)Cc2ccccc2)c(=O)c2ccccc21`, for which the IC50 is > 8 µM (inactive).

`CC[C@H]1CN2CCc3cc(OC)c(OC)cc3[C@@H]2C[C@@H]1C[C@H]1NCCc2cc(OC)c(OC)cc21`: the concentration for half-maximal inhibition (IC50) is 0.08 µM.

Regarding `O=C(NCCN1CCOCC1)c1ccc(=O)oc1`, the IC50 was > 8 µM (inactive).

Consider `O=C(Cc1cccs1)NCc1ccc(F)cc1`, for which the IC50 is > 8 µM (inactive).

Take `O=C(Nc1ccc(SC(F)F)cc1)c1ccc2nccnc2c1`: the IC50 was > 8 µM (inactive).

On to `COc1ccc(Cc2nc3ccc(S(N)(=O)=O)cc3[nH]2)cc1OC`, for which the IC50 was > 8 µM (inactive).

As to `Cc1oc(-c2ccccc2Cl)nc1CSCC(=O)N1CCCC1`, the IC50 is > 8 µM (inactive).

As for `O=C1c2ccccc2S(=O)(=O)N1Cc1nnc(-c2ccccc2Br)o1`, the IC50 was > 8 µM (inactive).

In the case of `Cc1c(NC2=NC3(CCCCC3)Cc3ccccc32)c(=O)n(-c2ccccc2)n1C`, the IC50 is > 8 µM (inactive).

With `Nc1c2c(nc3ccccc13)N(c1ccccc1)CC2`, the IC50 is > 8 µM (inactive).

`Cc1ccc(Nc2nc(N)nc(CN3CCCCCC3)n2)cc1`: the IC50 was > 8 µM (inactive).

Consider `OC1C[N+]2(CCCCC2)C1`, for which the IC50 is > 8 µM (inactive).

`O=C(c1ccc2c3c(cccc13)C(=O)N(O)C2=O)N1CCCCC1`: the IC50 was > 8 µM (inactive).

As to `O=C(Nc1cccc(F)c1)c1ccc2c(c1)OCO2`, the IC50 was > 8 µM (inactive).

As to `COc1ccc(CCn2c(O)c(C=NCc3cccnc3)c(=O)[nH]c2=O)cc1OC`, the IC50 is > 8 µM (inactive).

Turning to `FC(F)Oc1cccc2cccnc12`, the IC50 is > 8 µM (inactive).

For `C[C@H]1CCC/C=C/C2C[C@H](O)CC2[C@H](O)/C=C/C(=O)O1` (stereo partly specified), the half-maximal inhibitory concentration (IC50) was < 0.01 µM.

On to `CCn1c(=N)n(CC(=O)c2ccco2)c2ccccc21`, for which the IC50 was > 8 µM (inactive).

Turning to `COc1ccc(OC(=O)c2cc3ccccc3o2)cc1`, the IC50 is > 8 µM (inactive).

As for `COc1ccccc1OCC(O)COC(N)=O` (stereo unspecified), the IC50 is > 8 µM (inactive).

For `COc1ccc2c(C)nc(Nc3nc(C)cc(C)n3)nc2c1`, the IC50 was > 8 µM (inactive).

With `CC(=O)Nc1sc2c(c1CN1CCN(c3ccccn3)CC1)CCCC2`, the IC50 was > 8 µM (inactive).

Consider `O=c1c2ccccc2nc(SCc2cn3ccsc3n2)n1-c1ccc(F)cc1`, for which the IC50 was > 8 µM (inactive).

With `CCN(CC)S(=O)(=O)c1ccc2[nH]cc(C(=O)NCCC3=CCCCC3)c(=O)c2c1`, the IC50 was > 8 µM (inactive).

For `CN(CCc1ccccn1)c1ncnc2[nH]ncc12`, the IC50 was > 8 µM (inactive).

In the case of `CC1(C)CC(=O)C(C=NC(CCC(N)=O)C(=O)O)=C(O)C1` (stereo unspecified), the IC50 was > 8 µM (inactive).

Take `Cc1cc2c(cc1C)-c1nnnn1C(C)(C)C2`: the IC50 is > 8 µM (inactive).

Take `COc1ccc(C(=O)CSc2nnc(C3CCCCC3)n2N)c(OC)c1`: the IC50 was > 8 µM (inactive).

On to `Cc1cc(NC(=O)CS(=O)(=O)c2cn(Cc3ccccc3Cl)c3ccccc23)no1`, for which the IC50 was > 8 µM (inactive).

With `COc1ccc(CCN2C(=O)CC(N3CCN(S(=O)(=O)c4ccccc4)CC3)C2=O)cc1` (stereo unspecified), the IC50 was > 8 µM (inactive).

On to `CCCCSc1nc(O)c(C2OC(=O)c3c2ccc(OC)c3OC)c(=O)n1C` (stereo unspecified), for which the IC50 was > 8 µM (inactive).

Regarding `O=C(OCc1ccc2c(c1)OCO2)c1ccc(S(=O)(=O)N2CCCCC2)cc1`, the IC50 is > 8 µM (inactive).

Take `CCOC(=O)c1sc(NC(=O)CSc2n[nH]c(-c3ccccc3)n2)c(C#N)c1C`: the IC50 was > 8 µM (inactive).

`C=CCOC(=O)COc1cc(C)cc2oc(=O)c3c(c12)CCC3`: the IC50 was > 8 µM (inactive).

For the molecule `O=C(O)C1C2CCC(C2)C1C(=O)NCCCn1ccnc1` (stereo unspecified), the IC50 is > 8 µM (inactive).

For `Cc1cnc(NC(=O)CSc2nc3ccccc3c(=O)[nH]2)s1`, the IC50 is > 8 µM (inactive).

For the molecule `Cc1ccc(O)c(C(=O)c2cc(C#N)c(=O)n(CC3CCCO3)c2)c1` (stereo unspecified), the IC50 is > 8 µM (inactive).

Take `FC(F)Oc1ccc(-c2csc(Cc3nnc4n3CCCCC4)n2)cc1`: the IC50 is > 8 µM (inactive).

`O=C1COc2ccc(C(=O)NCc3ccco3)cc2N1`: the IC50 was > 8 µM (inactive).

With `CC1Oc2ccccc2N(CC(=O)N(Cc2ccccc2)Cc2ccccn2)C1=O` (stereo unspecified), the IC50 is > 8 µM (inactive).

As to `Cc1ccc(N=C2NC(=O)CS2)c(C)c1`, the IC50 is > 8 µM (inactive).

Consider `Cc1cc(N2C(=O)C3C4C=CC(C4)C3C2=O)ccc1Br` (stereo unspecified), for which the IC50 was > 8 µM (inactive).

Take `O=C1CC(N2CCN(c3cccc(C(F)(F)F)c3)CC2)C(=O)N1c1ccccc1` (stereo unspecified): the IC50 was > 8 µM (inactive).

For `O=C(NCCCN1CCCC1=O)c1cncc(Br)c1`, the IC50 was > 8 µM (inactive).

As to `CCOC(=O)C1CCCN(C(=O)c2cc3c(=O)n4cccc(C)c4nc3n2C)C1` (stereo unspecified), the IC50 was > 8 µM (inactive).

Take `CCOC(=O)C1CCCN(C(=O)c2sc3nc(-c4ccccc4)cn3c2C)C1` (stereo unspecified): the IC50 was > 8 µM (inactive).

As for `Cc1cc2oc(=O)cc(CN3CCCCC3)c2cc1C(C)C`, the IC50 is > 8 µM (inactive).

For `C=CCNc1nc(C)nc(OC)n1`, the IC50 is > 8 µM (inactive).

Regarding `Cc1cc(NC(=O)COC(=O)c2cccc(S(=O)(=O)N3CCOCC3)c2)no1`, the IC50 was > 8 µM (inactive).

Regarding `CN(C(=O)c1ccc2c(=O)n3c(nc2c1)CCCCC3)c1ccccc1`, the IC50 is > 8 µM (inactive).

Turning to `CC1CCN(C(=O)CSc2nc3ccccc3[nH]2)CC1`, the IC50 is > 8 µM (inactive).

`CC1CN(C(=O)CSc2nnc(-c3ccncc3)n2-c2ccccc2)CC(C)O1` (stereo unspecified): the IC50 was > 8 µM (inactive).

For the molecule `COc1ccc(-c2nnc(-c3cccs3)o2)cc1OC`, the IC50 was > 8 µM (inactive).

`COc1ccc(OC)c2[nH]c(=O)c(CCNC(=O)CC(C)C)cc12`: the IC50 was > 8 µM (inactive).

With `CC1=CC=CC2=NC(=O)CC(C)(C(=O)N(CC(=O)NC(C)C)C3CCCC3)N12` (stereo unspecified), the IC50 is > 8 µM (inactive).
